Data as given in the OPERA property sets (Mansouri et al. 2018).

SMILES	boiling point [°C]	melting point [°C]	also measured
O=[N+]([O-])c1ccsc1	225	78.5	–
C/C=C/C(=O)OCC	137	–	–
C[C@]12CC[C@H]3[C@@H](CCC4=C(O)C(=O)CC[C@@H]43)[C@@H]1CC[C@@H]2O	–	189	–
C/C=C/C=C/CCCCCCCO	–	32	log10 vapour pressure (mmHg): -3.29
CCOC(=O)C1(c2ccccc2)CCN(CCc2ccc(N)cc2)CC1	–	83	–
CCCNCCC	109	-63	log10 Henry constant (atm·m³/mol): -4.29; log10 Koa: 3.59; log10 vapour pressure (mmHg): 1.3; ready biodegradability: readily biodegradable
CCCCCCCCCCCCCCCC(=O)O	352	61.8	log10 vapour pressure (mmHg): -6.42; ready biodegradability: readily biodegradable
N#Cc1ccc(F)cc1	189	34.8	–
C#CC(O)c1ccccc1 (centres undefined)	–	22	–
Clc1cc(Cl)c(-c2c(Cl)c(Cl)c(Cl)c(Cl)c2Cl)c(Cl)c1Cl	–	–	log10 biotransformation half-life (days) (fish): 2.66
O=Cc1ccc([N+](=O)[O-])cc1[N+](=O)[O-]	–	72	–
COC(=O)[C@H](Cc1ccccc1)NC(=O)[C@@H](N)CC(=O)O	–	246	–
COC(C)OC	64.5	-113	log10 vapour pressure (mmHg): 2.23
CCCCCCC(CCCCCC)CCCCCC	–	-28.3	–
O=C(O)c1cccc([N+](=O)[O-])c1	–	141	ready biodegradability: not readily biodegradable; log10 BCF (fish): 0.85
Cc1cc(O)c2c(O)c3c(O)cccc3cc2c1	–	204	–
CC(=O)C1(O)CCCCC1	126	–	–
COc1cccc(C(=O)O)c1	–	107	ready biodegradability: readily biodegradable
Clc1cc(-c2c(Cl)cc(Cl)c(Cl)c2Cl)c(Cl)c(Cl)c1Cl	–	–	log10 Henry constant (atm·m³/mol): -5
COC(=O)CCCCCCCCC(=O)OC	–	38	–
CCOc1ccccc1NC(C)=O	–	79	–
NC(=O)c1cc([N+](=O)[O-])cc([N+](=O)[O-])c1	–	184	log10 Koc (L/kg): 2.31
CC1=NCCS1	145	-101	–

SMILES	boiling point [°C]	melting point [°C]	also measured
Clc1ccc(-c2cc(Cl)c(Cl)c(Cl)c2Cl)cc1Cl	–	–	log10 vapour pressure (mmHg): -5.79; log10 biotransformation half-life (days) (fish): 2.73
COC(=O)c1cccc(C(=O)OC)c1	282	67.5	ready biodegradability: readily biodegradable
C=CCOC(=O)c1ccco1	208	–	–
Cc1cc(O)c(C)c(O)c1	278	163	–
CCOc1ccc2c3c1O[C@H]1[C@@H](O)C=C[C@H]4[C@@H](C2)N(C)CC[C@@]341	–	200	–
CCS(=O)(=O)c1ccc(F)cc1	–	41	–
FC(F)(F)C(F)(F)C(F)(F)C(F)(C(F)(F)F)C(F)(F)F	57.6	-119	–
CCC1(c2ccccc2)C(=O)NC(=O)N(C)C1=O (centres undefined)	–	176	–
Cc1ccn2nc(S(=O)(=O)Nc3c(F)cccc3F)nc2n1	–	252	log10 Koc (L/kg): 1.45; log10 vapour pressure (mmHg): -11.6
CNC[C@H](O)c1ccc(O)c(O)c1.O=C(O)[C@H](O)[C@@H](O)C(=O)O	–	150	–
CCC(C)S (centres undefined)	84.5	-165	log10 vapour pressure (mmHg): 1.91
C[C@@](Cc1ccc(O)c(O)c1)(NN)C(=O)O	–	208	–
c1ccc(N=C(Nc2ccccc2)Nc2ccccc2)cc1	–	146	–
CC(CN1c2ccccc2Sc2ccccc21)N(C)C (centres undefined)	–	60	–
Cn1cc(-c2ccccc2)c(=O)c(-c2cccc(C(F)(F)F)c2)c1	–	154	log10 Koc (L/kg): 2.85; log10 vapour pressure (mmHg): -7.01; ready biodegradability: not readily biodegradable
CCNc1ccc([N+](=O)[O-])cc1	–	97	–
CCCN(CCC)C(=O)COC(=O)c1ccccc1	–	20	–
CCCCCBr	130	-95	log10 vapour pressure (mmHg): 1.1; ready biodegradability: not readily biodegradable
c1ccc2c(c1)CCc1ccccc1-2	–	34.5	log10 vapour pressure (mmHg): -3.22
CC(O)COCc1c(Cl)ccc(Cl)c1Cl (centres undefined)	–	–	log10 vapour pressure (mmHg): -4
Cc1ccc(N=Nc2c(O)ccc3ccccc23)c([N+](=O)[O-])c1	–	–	ready biodegradability: not readily biodegradable
CCC(=O)OC(C)CC (centres undefined)	133	–	–
